In ChEMBL document CHEMBL1811789, “Synthesis and biological evaluation of (±)-benzhydrol derivatives as potent non-nucleoside HIV-1 reverse transcriptase inhibitors” (Bioorg Med Chem, 2011):

Tests used:
[1] = system: Human immunodeficiency virus 1; assay: Antiviral activity against wild type HIV1 3B infected in human C8166 cells assessed as inhibition of viral-induced cytopathogenicity after 3 days by syncytium formation assay; format: functional, organism-based; conditions: Human immunodeficiency virus 1, 3B, C8166, 72 h
[2] = system: Human immunodeficiency virus 1; assay: Antiviral activity against […] HIV1 A17 harboring reverse transcriptase K103N and Y181C mutant infected in human C8166 cells assessed as inhibition of viral-induced cytopathogenicity after 3 days by syncytium formation assay; format: functional, organism-based; conditions: Human immunodeficiency virus 1, A17, C8166, 72 h
[3] = Cytotoxicity against human C8166 cells by MTT assay; format: cell-based
[4] = Selectivity index, ratio of CC50 for human C8166 cells to EC50 for wild type HIV1 3B; format: toxicity, cell-based; conditions: read-out: Ratio CC50/EC50

Cc1cc(S(N)(=O)=O)ccc1NC(=O)COc1ccc(Cl)cc1C(O)c1cccc2ccccc12 (racemic)
EC50 [1]: 0.39 µM
EC50 [2]: 8.47 µM
CC50 [3]: 31.1 µM
selectivity ratio [4]: 80.1

Cc1cc(S(N)(=O)=O)ccc1NC(=O)COc1ccc(Cl)cc1C(O)c1ccccc1 (racemic)
EC50 [1]: 1.12 µM
EC50 [2]: 16.5 µM
CC50 [3]: 33.4 µM
selectivity ratio [4]: 29.9

Cc1cc(C)cc(C(O)c2cc(Cl)ccc2OCC(=O)Nc2ccc(S(N)(=O)=O)cc2C)c1 (racemic)
EC50 [1]: 0.18 µM
EC50 [2]: 2.08 µM
CC50 [3]: 29.4 µM
selectivity ratio [4]: 166

Cc1cccc(C(O)c2cc(Cl)ccc2OCC(=O)Nc2ccc(S(N)(=O)=O)cc2C)c1 (racemic)
EC50 [1]: 0.48 µM
EC50 [2]: 9.7 µM
CC50 [3]: 33.1 µM
selectivity ratio [4]: 69

Cc1cc(S(N)(=O)=O)ccc1NC(=O)COc1ccc(Cl)cc1C(O)c1ccccc1C (racemic)
EC50 [1]: 1.21 µM
EC50 [2]: 20.8 µM
CC50 [3]: 33.9 µM
selectivity ratio [4]: 28

Cc1ccc(C)c(C(O)c2cc(Cl)ccc2OCC(=O)Nc2ccc(S(N)(=O)=O)cc2C)c1 (racemic)
EC50 [1]: 0.81 µM
EC50 [2]: 14.3 µM
CC50 [3]: 35.5 µM
selectivity ratio [4]: 43.7

Cc1ccc(C(O)c2cc(Cl)ccc2OCC(=O)Nc2ccc(S(N)(=O)=O)cc2C)cc1 (racemic)
EC50 [1]: 0.65 µM
EC50 [2]: 13.4 µM
CC50 [3]: 38.7 µM
selectivity ratio [4]: 59.3

Cc1cn([C@H]2C[C@H](N=[N+]=[N-])[C@@H](CO)O2)c(=O)[nH]c1=O [ZIDOVUDINE]
EC50 [2]: 0.023 µM
selectivity ratio [4]: 422000

Cc1cc(S(N)(=O)=O)ccc1NC(=O)COc1ccc(Cl)cc1C(O)c1cc(Cl)cc(Cl)c1 (racemic)
EC50 [1]: 1.06 µM
EC50 [2]: 9.45 µM
CC50 [3]: 13.1 µM
selectivity ratio [4]: 12.4

Cc1cc(S(N)(=O)=O)ccc1NC(=O)COc1ccc(Cl)cc1C(O)c1cc(Cl)cc(C#N)c1 (racemic)
EC50 [1]: 0.39 µM
EC50 [2]: 6.84 µM
CC50 [3]: 31.6 µM
selectivity ratio [4]: 80.8

Cc1cc(S(N)(=O)=O)ccc1NC(=O)COc1ccc(Cl)cc1C(O)c1cccc([N+](=O)[O-])c1 (racemic)
EC50 [1]: 0.12 µM
EC50 [2]: 4.34 µM
CC50 [3]: 36.9 µM
selectivity ratio [4]: 313

Cc1ccc(C(O)c2cc(Cl)ccc2OCC(=O)Nc2ccc(S(N)(=O)=O)cc2C)c(C)c1 (racemic)
EC50 [1]: 4.27 µM
EC50 [2]: 40.4 µM
CC50 [3]: 26.4 µM
selectivity ratio [4]: 6.18

Cc1cc(S(N)(=O)=O)ccc1NC(=O)COc1ccc(Cl)cc1C(O)c1cc(Cl)cc(Br)c1 (racemic)
EC50 [1]: 0.54 µM
EC50 [2]: 7.79 µM
CC50 [3]: 22.9 µM
selectivity ratio [4]: 42.4

Cc1cc(S(N)(=O)=O)ccc1NC(=O)COc1ccc(Cl)cc1C(O)c1ccc(Cl)c(Cl)c1 (racemic)
EC50 [1]: 2.15 µM
EC50 [2]: 31.6 µM
CC50 [3]: 24 µM
selectivity ratio [4]: 11.2

Cc1cc(S(N)(=O)=O)ccc1NC(=O)COc1ccc(Cl)cc1C(O)c1cccc(Cl)c1 (racemic)
EC50 [1]: 0.72 µM
EC50 [2]: 13 µM
CC50 [3]: 33.2 µM
selectivity ratio [4]: 46.4

Cc1cc(S(N)(=O)=O)ccc1NC(=O)COc1ccc(Cl)cc1C(O)c1cccc(F)c1 (racemic)
EC50 [1]: 0.48 µM
EC50 [2]: 6.61 µM
CC50 [3]: 37.6 µM
selectivity ratio [4]: 78.5

Cc1cc(S(N)(=O)=O)ccc1NC(=O)COc1ccc(Cl)cc1C(O)c1cc(Cl)ccc1Cl (racemic)
EC50 [1]: 1.06 µM
EC50 [2]: 9.58 µM
CC50 [3]: 36.2 µM
selectivity ratio [4]: 34.2

Cc1cc(S(N)(=O)=O)ccc1NC(=O)COc1ccc(Cl)cc1C(O)c1ccc(Cl)cc1Cl (racemic)
EC50 [1]: 2.92 µM
EC50 [2]: 33.6 µM
CC50 [3]: 39.9 µM
selectivity ratio [4]: 13.7

Cc1cc(S(N)(=O)=O)ccc1NC(=O)COc1ccc(Cl)cc1C(O)c1ccccc1Cl (racemic)
EC50 [1]: 1.3 µM
EC50 [2]: 20.4 µM
CC50 [3]: 32 µM
selectivity ratio [4]: 24.6

Cc1cc(S(N)(=O)=O)ccc1NC(=O)COc1ccc(Cl)cc1C(=O)c1cc(Cl)cc(C#N)c1
EC50 [1]: 0.00069 µM
EC50 [2]: 0.0014 µM
CC50 [3]: > 387 µM
selectivity ratio [4]: > 563000

Cc1cc(S(N)(=O)=O)ccc1NC(=O)COc1ccc(Cl)cc1C(O)c1cccc(C)c1C (racemic)
EC50 [1]: 9.02 µM
EC50 [2]: 216 µM
CC50 [3]: 218 µM
selectivity ratio [4]: 24.1

Cc1cc(S(N)(=O)=O)ccc1NC(=O)COc1ccc(Cl)cc1C(O)c1ccc2ccccc2c1 (racemic)
EC50 [1]: 1.09 µM
EC50 [2]: 10.7 µM
CC50 [3]: 15.7 µM
selectivity ratio [4]: 14.3
